Experimental data from PMC8973439, “From Fish Scale Gelatin to Tyrosinase Inhibitor: A Novel Peptides Screening Approach Application” (Frontiers in Nutrition, 2022).
Like-named read-outs stand apart in the source and are kept apart here. Each block holds one compound with its values, some of them ahead of it. Where a SMILES comes first, the peptide text is derived from it.

Assays:
Mushroom tyrosinase = Mushroom tyrosinase (Agaricus bisporus, UniProt C7FF04); experiment: Tyrosinase inhibitory activity (L-DOPA oxidation, 475 nm); type: biochemical
Sequence of Mushroom tyrosinase (C7FF04 1-392): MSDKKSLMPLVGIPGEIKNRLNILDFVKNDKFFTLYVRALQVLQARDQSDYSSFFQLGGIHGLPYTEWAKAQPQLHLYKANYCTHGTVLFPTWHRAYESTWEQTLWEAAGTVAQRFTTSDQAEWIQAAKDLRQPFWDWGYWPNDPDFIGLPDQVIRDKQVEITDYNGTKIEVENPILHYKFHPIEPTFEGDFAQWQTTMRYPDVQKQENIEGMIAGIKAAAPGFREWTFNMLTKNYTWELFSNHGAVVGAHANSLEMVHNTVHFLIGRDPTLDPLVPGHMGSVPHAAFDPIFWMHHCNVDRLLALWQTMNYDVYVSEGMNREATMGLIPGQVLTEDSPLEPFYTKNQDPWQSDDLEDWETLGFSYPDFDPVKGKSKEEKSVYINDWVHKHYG
Method: The determination of the tyrosinase inhibitory activity was made according to Uysal et al. ([26]). Sample solutions (50 μl) with the appropriate concentration were reacted with 50 μl of 200 mM pH 6.8 phosphate buffer saline (PBS) solution and 50 μl of tyrosinase at room temperature for 15 mins. Then, 50 μl of 2.5 mM L-DOPA was added, and allowed to react at 30°C for 10 min. The absorbance (As) at 475 nm was finally measured with a microplate reader (Synergy H1, BioTek Co., Ltd., USA). Taking the reaction system without enzyme and sample as a blank.
4 ml of hydrolysis product (5 mg/ml) and 2 ml of mushroom tyrosinase (10 U/ml) were incubated for 1 h at 37°C. Inactivated mushroom tyrosinase (heated in a boiling water bath for 10 mins) was also prepared as a blank group.

tyrosinase = settings: cited from earlier work
Description: Studies have shown that peptides with lower MW tend to have higher functional activity ([38]). Therefore, peptides with MW ≤ 1,000 Da were selected from the 52 peptides obtained, and 16 peptides (shown in Table 3) were obtained for subsequent analysis. Section Amino Acid Composition and Molecular Weight Distribution of Hydrolysates introduced some amino acids that contribute to tyrosinase inhibition, such as Val, Ala, Leu, Ile, Arg, Phe, Cys, Ser, and Thr. According to the screening method from previous study ([10]), 16 peptides in Table 3 were counted for their tyrosinase inhibitory contribut ...

[1] = test system: tyrosinase in B16F10 cells; experiment: Tyrosinase activity in B16F10 melanoma cells; type: cell-based, murine; settings: positive control, 0.75 mg/ml, 24 h; lysate with 10 mM L-DOPA, 30 min 37°C, 450 nm
Method: The tyrosinase inhibition was determined according to the method of Ullah et al. ([31]). B16F10 cells were seeded into 96-well plates at a rate of 5 × 10^4 cells per well and incubated at 37°C in a humid atmosphere of 5% CO2 for 24 h. […] (0, 0.1, 0.2, 0.4, 0.8 and 1.6 mg/ml), and re-incubated for 24 h under the same conditions. The cells were then washed with PBS buffer, lysed with lysate buffer [100 μl containing 50 mM PBS, 0.1 mM phenylmethanesulfonyl fluoride (5 μl) and Triton X-100 (5 μl)], and frozen at −80°C for 30 min. The cell lysate was then centrifuged at 12,000 rpm at 4°C for 30 min and transferred to a 96-well plate with a total volume of 100 μl (80 μl lysate supernatant and 20 μl 10 mM L-DOPA) and incubated for 30 min at 37°C. The absorbance was measured at 450 nm using an enzyme-linked immunosorbent assay (ELISA) reader.

[2] = test system: B16F10 melanoma cells (melanin content); experiment: Melanin content in B16F10 melanoma cells; type: cell-based, murine; settings: positive control, 0.75 mg/ml; NaOH/10% DMSO lysis, 405 nm
Method: (§1) B16F10 cells were kept in Dulbecco's modified eagle medium supplemented with 10% heat-inactivated fetal bovine serum, and cells were cultured at 37°C in an atmosphere with 5% CO2. These cells were then used for cell viability, tyrosinase inhibition and melanin content determination.
After cultivated according to the instructions above, the cells were digested with 0.25% trypsin when reached to 80–90% confluence to make a single cell suspension. Fresh culture medium was used to adjust the cell concentration to 1 × 10^6 cells/ml, 2 ml of which was inoculated in a 6-well culture plate for incubation overnight. When the cells adhered, the supernatant was discarded and the cells were rinsed with PBS once. 2 ml fresh culture medium was added again for incubation under CO2 for 48 h. The supernatant was discarded after the incubation, and the adhered cells were rinsed with PBS and then dispersed with trypsin. The dispersed cells were collected and centrifuged at 1,500 r/min for 10 min. […] Measured the optical density value of each well at 405 nm with a microplate reader, and calculated the melanin content ([32]). (3) Melanin content/%=(As-Ab)/(Ac-Ab)×100% where, As is the absorbance of experimental wells; Ac is the absorbance of control well; Ab is the absorbance of blank wells.

B16F10 melanoma cells = experiment: Cell viability of B16F10 melanoma cells (CCK-8); type: cell-based, murine; settings: 24 h
Method: as §1
The previously described cell counting kit-8 (CCK-8) assay was used to assess cell viability ([30]). The cells were incubated in a 96-well plate with 5 × 10^4 cells per well in a 5% humid CO2 atmosphere at 37°C for 24 h. […] The cells were re-incubated for 24 h under the same conditions. The cells were then treated with the CCK-8 reagent and incubated at 37°C for 1 h. Cell viability is calculated by reading the absorbance value at 450 nm. The calculation formula is shown below. (2) Cell viability/%=(As-Ab)/(Ac-Ab)×100% where, As is the absorbance of experimental wells (medium containing cells, CCK-8, sample to be tested); Ac is the absorbance of control well (medium containing cells, CCK-8, no sample to be tested); Ab is the absorbance of blank wells (medium without cells and samples to be tested, CCK-8).

[3] = synthetic peptides (purity more than 95%), mushroom tyrosinase, 2.5 mM L-DOPA, 200 mM pH 6.8 PBS, preincubation 15 min room temperature, 10 min 30°C, 475 nm, three parallel tests, read-out: IC50 (tyrosinase inhibition)

IC50 (Mushroom tyrosinase; [3]): 5.81 mM
Compound: CC(C)[C@H](NC(=O)[C@H](CCC(=O)O)NC(=O)[C@H](CO)NC(=O)[C@@H](N)Cc1c[nH]c2ccccc12)C(=O)N[C@@H](Cc1ccccc1)C(=O)O [WSEVF] (H-WSEVF-OH)

Compound: RHAKF [from Chinese quince seed protein hydrolysate]
IC50 (tyrosinase inhibition) (tyrosinase; from Chinese quince seed protein hydrolysate): 1150 µg/mL

Compound: Phe-Pro-Tyr [FPY, from defatted walnut (Juglans regia L.) meal hydrolysate]
IC50 (tyrosinase; from defatted walnut (Juglans regia L.) meal hydrolysate, read-out: IC50 (tyrosinase inhibition)): 3.22 ± 0.22 mM

Compound: O=c1cc(CO)occ1O [kojic acid]
Tyrosinase inhibition rate in B16F10 cells [1]: 28.34%
Reduction of melanin content [2]: 55.4%

IC50 (Mushroom tyrosinase; [3]): 4 mM
Compound: CC(C)C[C@H](NC(=O)[C@H](CC(=O)O)NC(=O)[C@@H](N)Cc1ccccc1)C(=O)NCC(=O)N[C@@H](Cc1ccccc1)C(=O)N[C@@H](CC(C)C)C(=O)N[C@@H](C)C(=O)N[C@@H](CCCNC(=N)N)C(=O)O (H-FDLGFLAR-OH)

IC50 (Mushroom tyrosinase; [3]): 3.86 mM
Compound: CC(C)C[C@H](NC(=O)[C@@H](NC(=O)[C@H](CC(C)C)NC(=O)[C@H](CCC(N)=O)NC(=O)[C@@H](N)Cc1c[nH]c2ccccc12)[C@@H](C)O)C(=O)O [WQLTL] (H-WQLTL-OH)

Compound: CC(C)C[C@H](NC(=O)[C@H](Cc1ccccc1)NC(=O)CNC(=O)[C@H](CC(C)C)NC(=O)[C@@H](N)CC(=O)O)C(=O)N[C@@H](C)C(=O)N[C@@H](CCCNC(=N)N)C(=O)NCC(=O)N[C@@H](Cc1ccccc1)C(=O)O (H-DLGFLARGF-OH)
Cell viability, concentration dependence (B16F10 melanoma cells; 0–1.6 mg/ml, CCK-8): cell survival rate gradually decreased
Cell viability (B16F10 melanoma cells; tested concentration range 0–1.6 mg/ml, CCK-8, 450 nm): > 50%
IC50 (Mushroom tyrosinase): 3.09 mM
